According to patent publication US8217050B2, “Adenine derivative as inhibitors of HSP90 for the treatment of cancer” (Chroma Therapeutics Limited, priority 2006, dated 2012):

Key:
[1] = target: T1, human recombinant his-tagged HSP90α (Homo sapiens, UniProt P07900); experiment: Hsp90 HTRF assay (competition with biotinylated GM for binding to HSP90); conditions: bio-GM displacement, 20 h incubation at room temperature, read-out: Inhibitor Activity vs Hsp90
T1 construct: purchased Prospec Technogene #HSP90
Description: An HTRF (homogeneous time resolved fluorescence assay) assay was used to measure the interaction of the compounds with HSP90.
The assay measures binding of biotinylated GM (bio-GM; Biomol, #EI-341, lot: A9199a) to human recombinant his-tagged HSP90α (HSP90; Prospec Technogene, #HSP90, lot: 260HSP9001). A signal is generated by fluorescence resonance energy transfer from an Europium-cryptate labeled anti-his antibody (anti-6HIS-Cryptate; Cisbio International, #61HISKLA, lot: 33V) via the HSP90-GM-biotin complex to a fluorescence acceptor (allophycocyanin) linked to streptavidin (SA-XL; Cisbio International, #610SAXLB, lot: 089).
Unlabeled GM or compounds compete with the bio-GM for binding to HSP90 resulting in reduced fluorescence energy transfer/assay signal.
For the assay a preformed (1 h incubation) complex of HSP90 with the anti-his-K is added to the compound solution in a 384 well microplate (Corning, #3710) and incubated for 15 min. A preformed (1 h incubation) complex of bio-GM with the SA-XL was added to the wells and incubated for 20 h. All incubations were performed at room temperature. The final assay volume was 50 μl/well. The final concentrations in the assay were: 50 mM Hepes pH 7.3, 50 mM NaCl, 100 mM KF, 1 mM EDTA, 1 mM DTT, 0.1% Triton-X-100, 1 nM anti-his-K, 40 nM HSP90, 40 nM SA-XL, 40 nM bio-GM. Test compounds were dissolved in DMSO, prediluted in assay buffer and tested at a final concentration between 5000 nM and 0.3 nM. The resulting DMSO concentration was 0.5% and included in all controls. High controls were without test compounds, low controls without test compounds, without HSP90 and without bio-GM. As a reference inhibitor unlabeled GM was used in the same concentrations as the test compounds.
Inhibition was calculated compared to the assay controls using an Excel spreadsheet (Microsoft). IC50 values were calculated by non-linear least squares fitting to the standard dose-response model using GraphPad Prism (GraphPad Software Inc).

[2] = system: HCT 116 cell line; experiment: Cell inhibition assay (WST-1 cell proliferation, 120 hrs); format: cell-based; conditions: Homo sapiens, HCT-116, 120 hrs, read-out: Inhibitor Activity vs HCT 116 cell line
Protocol: Cells were seeded in 96W tissue culture plates (1 well=30 mm^2) at a density of 500 cells per well in 50 μl of the appropriate culture medium (see below). 24 hrs later 50 μl of the compound prepared in the same medium was added as 4 fold dilutions to give final concentrations in the range 0.15 nM-2500 nM (n=6 for each concentration). The plates were then incubated at 37° C., 5% CO2 for 120 hrs. Cell proliferation was assessed using WST-1 (a metabolic indicator dye, Roche Cat no. 1 644 807) according to the manufacturers instructions. The results were calculated as percentage of vehicle response and IC50 values represent the concentration of compound that inhibited the vehicle response by 50%. HCT-116 Culture Medium—Dulbeccos MEM (Sigma D6546) plus 10% heat inactivated fetal calf serum (Hyclone SH30071 Thermo Fischer Scientific) containing 2 mM Glutamine (Sigma cat no G-7513) and 50 U/ml Penicillin and Streptomycin Sulphate (Sigma Cat no P-0781).
Data were expressed as a percentage inhibition of the control, measured in the absence of inhibitor, as follows: % inhibition=100−((S^i/S^o)×100) where S^i is the signal in the presence of inhibitor and S0 is the signal in the presence of DMSO.
IC50 values were determined by non-linear regression analysis, after fitting the results of eight data points to the equation for sigmoidal dose response with variable slope (% activity against log concentration of compound), using Graphpad Prism® software.

| IC50 [1] [µM] | IC50 [2] [µM] | SMILES |
| --- | --- | --- |
| < 1 | < 1 | Nc1ncnc2c1nc(Sc1cc3c(cc1I)OCO3)n2CCC[C@H](N)C(=O)OC1CCCC1 [Example 1, (S)-Cyclopentyl 2-amino-5-(6-amino-8-(6-iodobenzo[d][1,3]dioxol-5-ylthio)-9H-purin-9-yl)pentanoate] |
| < 1 | < 1 | Nc1ncnc2c1nc(Sc1cc3c(cc1I)OCO3)n2CC[C@H](N)C(=O)OC1CCCC1 [Example 2, (S)-cyclopentyl 2-amino-4-(6-amino-8-(6-iodobenzo[d][1,3]dioxol-5-ylthio)-9H-purin-9-yl)butanoate] |
| < 1 | < 1 | Nc1ncnc2c1nc(Sc1cc3c(cc1I)OCO3)n2CCC[C@@H](N)C(=O)OC1CCCC1 [Example 3, (R)-Cyclopentyl 2-amino-5-(6-amino-8-(6-iodobenzo[d][1,3]dioxol-5-ylthio)-9H-purin-9-yl)pentanoate] |
| < 1 | < 1 | Nc1ncnc2c1nc(Sc1cc3c(cc1I)OCO3)n2CC[C@@H](N)C(=O)OC1CCCC1 [Example 4, (R)-cyclopentyl 2-amino-4-(6-amino-8-(6-iodobenzo[d][1,3]dioxol-5-ylthio)-9H-purin-9-yl)butanoate] |
| < 1 | 1 to 10 | CC(C)(C)OC(=O)[C@@H](N)CCCn1c(Sc2cc3c(cc2I)OCO3)nc2c(N)ncnc21 [Example 5, (S)-tert-Butyl 2-amino-5-(6-amino-8-(6-iodobenzo[d][1,3]dioxol-5-ylthio)-9H-purin-9-yl)pentanoate] |
| < 1 | – | Nc1ncnc2c1nc(Sc1cc3c(cc1I)OCO3)n2C[C@H](N)C(=O)OC1CCCC1 [Example 6, Cyclopentyl 3-{6-amino-8-[(6-iodo-1,3-benzodioxol-5-yl)thio]-9H-purin-9-yl}-L-alaninate] |
| 1 to 10 | – | Nc1ncnc2c1nc(Sc1ccc3c(c1)OCO3)n2-c1ccc(C[C@H](N)C(=O)OC2CCCC2)cc1 [Example 7, Cyclopentyl 4-{6-amino-8-[(1,3-benzodioxol-5-yl)thio]-9H-purin-9-yl}-L-phenylalaninate] |
| 1 to 10 | – | Nc1ncnc2c1nc(Sc1cc3c(cc1Br)OCO3)n2-c1ccc(C[C@H](N)C(=O)OC2CCCC2)cc1 [Example 8, Cyclopentyl 4-{6-amino-8-[(6-bromo-1,3-benzodioxol-5-yl)thio]-9H-purin-9-yl}-L-phenylalaninate] |
| < 1 | – | Nc1ncnc2c1nc(Sc1cc3c(cc1I)OCO3)n2CCC[C@H](N)C(=O)O [Example 9, (S)-2-amino-5-(6-amino-8-(6-iodobenzo[d][1,3]dioxol-5-ylthio)-9H-purin-9-yl)pentanoic acid] |
| < 1 | – | Nc1ncnc2c1nc(Sc1cc3c(cc1I)OCO3)n2CC[C@H](N)C(=O)O [Example 10, (S)-2-amino-4-(6-amino-8-(6-iodobenzo[d][1,3]dioxol-5-ylthio)-9H-purin-9-yl)butanoic acid] |
| 1 to 10 | – | Nc1ncnc2c1nc(Sc1ccc3c(c1)OCO3)n2-c1ccc(C[C@H](N)C(=O)O)cc1 [Example 13, 4-{6-amino-8-[(1,3-benzodioxol-5-yl)thio]-9H-purin-9-yl}-L-phenylalanine] |
| < 1 | – | Nc1ncnc2c1nc(Sc1cc3c(cc1Br)OCO3)n2-c1ccc(C[C@H](N)C(=O)O)cc1 [Example 14, 4-{6-amino-8-[(6-bromo-1,3-benzodioxol-5-yl)thio]-9H-purin-9-yl}-L-phenyl alanine] |
